{
  "source": "paper PMC7724566",
  "about": "“Prospects for Clinical Development of Stat5 Inhibitor IST5-002: High Transcriptomic Specificity in Prostate Cancer and Low Toxicity In Vivo” (Cancers, 2020)",
  "key": {"[1]": {"tested_on": "C57BL/6J and athymic nude mice", "assay": "Acute and chronic toxicity studies, clinical observation and histology", "format": "in vivo", "protocol": "The acute and chronic toxicity studies were carried out in both male C57BL/6J and athymic nude mice (Table 3 and Table 4) using daily administration of IST5 vs. vehicle at doses of 0, 10, 30 and 100 mg/kg (n = 5/dose) as well as in female (data not shown) mice. There were no signs of anemia (hemoglobin-HGB; hematocrit-HCT), thrombocytopenia or leukopenia. In either acute or chronic toxicity studies, there was no mortality in the mice associated with IST5 treatment. The gross histology of the liver, spleen (Figure 6), kidney and brain were normal (28 d). […] IST5 had no effects on body weight, organ weight, appearance, respiration, or eye function. Of note, a number of the Jak2 kinase inhibitors in use or in clinical development have shown off-target inhibitory effects on TrkB kinase (a receptor for brain-derived neurotrophic factor), thereby causing neurological side-effects.\nFigure 6 IST5 […] significant chronic toxicity in vivo in mice. The chronic toxicity studies were carried out in both male and female C57BL/6J and athymic nude mice by daily administration of IST5 vs. vehicle at doses of 0, 10, 30 and 100 mg/kg (n = 5/dose). At the end of the study, heart, kidney, liver, lung and spleen tissues were fixed and stained with hematoxylin and eosin. The gross histology of heart, liver, spleen, kidney, spleen and brain were all normal (28 d).\nForty athymic nude mice (8 weeks) (Crl:NU/NCr-Foxn1n) of either sex (20 males and 20 females) were randomized into four groups (n = 5/group) for either sex. The randomization of the mice was carried out based on their baseline body weight measured on day 0. IST5 or vehicle (0.3% hydroxypropyl cellulose, (Sigma-Aldrich, MO, St. Louis, MO, USA) were administered to the mice by i.p. injection for 28 days. The mice were observed daily for behavior, and body weights were measured on every 3rd day throughout the 28-day experimental protocol. The monitoring was started immediately after the compound administration and continued for 2 h for any acute signs of toxicity. In addition, the mice were monitored daily for any signs of toxicity using several clinical parameters. The clinical signs that were taken into consideration were as follows: 1) weight loss: rapid weight loss ([…]) or, weight loss of extended period time ([…]); 2) rapid growth of mass or masses; 3) paralysis or paresis (partial paralysis); 4) frank bleeding from any orifice; 5) lesions interfering with eating or drinking; 6) diarrhea (non-formed/soft stool or diarrhea liquid stool); 6) loss of body temperature; 7) appearance: rough coat, porphyrin staining (red or brown staining around eyes, nose, or along front paws, distended abdomen, alopecia; 8) eyes: ocular discharge, pale appearance, distinct icterus (jaundice or yellowing of the eyes); 9) respiration: coughing or wheezing, rales or crackling in the lungs, respiration increased or labored; 10) behavioral: hunched posture, huddling in a corner, lethargy, avoiding cagemate(s), head tilt, tremors (head, body, tail), spasticity (stiff muscles), ataxia (loss of voluntary muscle movement), seizures or convulsions, circling, persistent self-induced trauma, chattering or vocalizations, loss of startle response, loss of righting reflex. The clinical chemistry parameters measured were the same as those used for the acute toxicity study.\nThe sub-chronic toxicity study (10 days) was carried out in C57BL/6J mice (8 weeks) (stock 000664) (n = 10/dose group 5 of each sex). […]"}, "CWR22Pc cells": {"tested_on": "CWR22Pc cells", "assay": "RNA-seq transcriptome, IST5 vs. genetic Stat5 knockdown", "format": "cell-based, human", "conditions": "3 days", "excerpt": "In order to evaluate the potential of IST5 for further optimization for clinical development, we compared the IST5-induced transcriptome to that of Stat5 genetic knockdown in PC cells. Stat5 expression was inhibited by lenti-viral expression of shStat5 or shCtrl in CWR22Pc cells for 3 days (Figure 2A). CWR22Pc cells were chosen as the model system because the cell line expresses both Stat5 and androgen receptor and mimics the course of disease progression in PC patient. When grown in mice as xenograft tumors, CWR22Pc cells form androgen-dependent tumors which regress in response to androgen deprivation but later recur as Castrate-Resistant Prostate Cancer (CRPC) tumors. In parallel wells, CWR22Pc cells were treated with IST5 or vehicle for 3 days. We performed RNA-seq to profile the gene expression changes and received an average of 22.4 million paired-end clean reads from each sample (Table S5). […] Most importantly, the similarity between the transcriptomes regulated by shStat5 vs. IST5 was remarkably high, with Pearson correlation coefficient ranging from 0.98–0.99 (Figure 2C).\nFigure 2 IST5 show high transcriptional specificity in prostate cancer cells. […]\nTotal RNA of each replicate sample was isolated using RNeasy Micro Kit (QIAGEN, Valencia, CA, USA) and reverse transcribed with Super-Script III Reverse Transcriptase (Life Technologies, Brown Deer, WI, USA) following the manufacturer’s instructions. […] RNA quality was assessed by Agilent Bioanalyzer 2100 (Agilent, Santa Clara, CA, USA), and RNA integrity number (RIN) ≥7.5 was qualified for subsequent RNA-seq analysis.\nWe performed RNA-seq to evaluate the transcriptomes regulated by IST5 vs. genetic knockdown (lenti-shStat5) of Stat5 with corresponding controls (vehicle or lenti-shCtrl). […] Sequencing data (fastq files) were quantified with a software tool Salmon (version 1.1.0). […] Transcripts with less than 10 median read-counts were filtered out. […] Statistical significance was determined at a FDR threshold <0.01. […]"}, "[2]": {"conditions": "6 µM, FDR <0.01, fold change >2 or <−2"}},
  "data": [
    {"smiles": "O=P(O)(O)OCC1OC(n2cnc3c(NCc4ccccc4)ncnc32)C(O)C1O", "note": "(centres unmarked) [IST5]", "values": [
      {"measurement": "mortality associated with treatment", "setting": "[1]; acute or chronic toxicity studies, 10, 30 and 100 mg/kg", "value": "no mortality"},
      {"measurement": "signs of anemia, thrombocytopenia or leukopenia", "setting": "[1]; daily 10, 30 and 100 mg/kg", "value": "no signs"},
      {"measurement": "adverse effects on blood clinical chemistry (blood urea, liver enzymes, glucose, albumin)", "setting": "[1]; mouse, in vivo", "value": "no adverse effects"},
      {"measurement": "effects on body weight, organ weight, appearance, respiration, or eye function", "setting": "[1]; mouse, in vivo", "value": "no effects"},
      {"measurement": "gross histology of liver, spleen, kidney and brain", "setting": "[1]; mouse, in vivo", "value": "normal"},
      {"measurement": "transcripts down-regulated", "setting": "CWR22Pc cells; [2]", "value": 765},
      {"measurement": "transcripts upregulated", "setting": "CWR22Pc cells; [2]", "value": 324},
      {"measurement": "Pearson correlation coefficient of transcriptomes regulated by shStat5 vs. IST5", "setting": "CWR22Pc cells; IST5 6 µM", "value": "0.98–0.99"}
    ]}
  ]
}
